Source: ChEMBL document CHEMBL1201862, “PubChem BioAssay data set” (2004)
Active and inactive are the calls of the source.

Tests used:
[1] = target: T1, DNA repair protein RAD52 homolog (Homo sapiens, UniProt P43351); assay type: functional, biochemical
T1 sequence (P43351 whole entry): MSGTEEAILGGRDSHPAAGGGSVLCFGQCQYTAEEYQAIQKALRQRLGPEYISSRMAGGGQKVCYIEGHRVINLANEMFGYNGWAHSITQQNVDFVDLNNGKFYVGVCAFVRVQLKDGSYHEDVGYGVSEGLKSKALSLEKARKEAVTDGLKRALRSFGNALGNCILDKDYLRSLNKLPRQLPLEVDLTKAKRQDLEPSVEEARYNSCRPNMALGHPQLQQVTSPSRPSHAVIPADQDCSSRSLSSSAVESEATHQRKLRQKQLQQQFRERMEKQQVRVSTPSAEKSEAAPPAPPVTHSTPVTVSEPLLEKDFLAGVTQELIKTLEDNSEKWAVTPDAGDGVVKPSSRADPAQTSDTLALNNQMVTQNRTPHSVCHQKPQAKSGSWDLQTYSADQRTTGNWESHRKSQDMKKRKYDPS

[2] = target: T2, DNA repair and recombination protein RAD54-like (Homo sapiens, UniProt Q92698); assay: RAD54 Holliday junction migration blockers – biochemical, fluorescence, cherry-picked samples, dose series, confirmation (AID 651657); assay type: functional
T2 sequence (Q92698 whole entry): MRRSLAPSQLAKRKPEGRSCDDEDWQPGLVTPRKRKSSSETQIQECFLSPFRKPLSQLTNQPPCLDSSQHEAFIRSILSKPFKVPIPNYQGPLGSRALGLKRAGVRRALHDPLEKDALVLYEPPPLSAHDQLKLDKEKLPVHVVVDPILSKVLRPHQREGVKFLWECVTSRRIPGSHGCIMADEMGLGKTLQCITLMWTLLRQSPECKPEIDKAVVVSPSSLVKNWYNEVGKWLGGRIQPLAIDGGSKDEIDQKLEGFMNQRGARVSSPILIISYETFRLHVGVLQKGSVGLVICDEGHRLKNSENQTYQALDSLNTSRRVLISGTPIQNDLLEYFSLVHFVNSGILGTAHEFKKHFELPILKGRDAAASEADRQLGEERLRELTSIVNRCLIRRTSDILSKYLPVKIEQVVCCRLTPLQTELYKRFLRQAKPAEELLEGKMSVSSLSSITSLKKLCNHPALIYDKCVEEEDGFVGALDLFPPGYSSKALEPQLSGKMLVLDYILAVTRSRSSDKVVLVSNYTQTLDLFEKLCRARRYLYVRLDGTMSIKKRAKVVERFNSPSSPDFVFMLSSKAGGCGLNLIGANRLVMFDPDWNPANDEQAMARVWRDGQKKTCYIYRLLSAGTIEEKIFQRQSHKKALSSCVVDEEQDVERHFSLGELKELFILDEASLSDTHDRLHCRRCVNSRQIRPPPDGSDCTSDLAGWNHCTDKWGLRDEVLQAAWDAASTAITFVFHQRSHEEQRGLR

[3] = target: T3, Probable nicotinate-nucleotide adenylyltransferase (Staphylococcus aureus (strain N315), UniProt P65502); assay type: functional, Staphylococcus aureus subsp. aureus N315;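 on IC50 Mean: confirmatory dose-response retesting of NadD inhibitor hits first found in an ultra-high-throughput screen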
T3 sequence (P65502 whole entry): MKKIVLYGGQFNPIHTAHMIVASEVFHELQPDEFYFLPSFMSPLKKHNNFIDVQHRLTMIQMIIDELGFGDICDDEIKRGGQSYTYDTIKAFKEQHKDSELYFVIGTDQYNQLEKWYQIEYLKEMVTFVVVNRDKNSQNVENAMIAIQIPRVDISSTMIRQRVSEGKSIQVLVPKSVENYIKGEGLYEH

[4] = target: T3, Probable nicotinate-nucleotide adenylyltransferase; assay type: functional, Staphylococcus aureus subsp. aureus N315; conditions: read-out: IC50_Mean
Cysteine protease ATG4B = target: T4, Cysteine protease ATG4B (Homo sapiens, UniProt Q9Y4P1); assay type: functional;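 further: Fluorescence-based dose-response confirmation assay measuring inhibition of ATG4B activity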
T4 sequence (Q9Y4P1 whole entry): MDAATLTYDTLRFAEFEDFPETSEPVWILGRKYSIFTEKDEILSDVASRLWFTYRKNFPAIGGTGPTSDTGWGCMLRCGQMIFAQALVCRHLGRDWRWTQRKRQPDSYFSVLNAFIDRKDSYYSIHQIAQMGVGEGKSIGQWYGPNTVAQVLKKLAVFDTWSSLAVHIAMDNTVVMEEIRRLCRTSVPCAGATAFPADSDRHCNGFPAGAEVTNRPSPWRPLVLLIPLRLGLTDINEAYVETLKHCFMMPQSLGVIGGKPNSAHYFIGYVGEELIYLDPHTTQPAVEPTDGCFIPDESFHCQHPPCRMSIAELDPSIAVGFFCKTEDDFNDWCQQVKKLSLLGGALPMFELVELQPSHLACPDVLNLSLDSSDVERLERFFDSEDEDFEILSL

Phospholipase A2 = Phospholipase A2 (Homo sapiens, UniProt P04054); assay type: functional;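 further: confirmatory dose-response counterscreen on phospholipase A2, testing hits that came from an ultra-high-throughput screen for ATG4B inhibitors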
Phospholipase A2, sequence (P04054 whole entry): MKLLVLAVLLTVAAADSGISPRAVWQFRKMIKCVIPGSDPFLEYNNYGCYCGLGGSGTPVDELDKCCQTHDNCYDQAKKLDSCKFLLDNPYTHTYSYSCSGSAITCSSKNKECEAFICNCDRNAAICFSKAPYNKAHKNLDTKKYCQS

[5] = target: T5, Sentrin-specific protease 8 (Homo sapiens, UniProt Q96LD8); assay type: functional
T5 sequence (Q96LD8 whole entry): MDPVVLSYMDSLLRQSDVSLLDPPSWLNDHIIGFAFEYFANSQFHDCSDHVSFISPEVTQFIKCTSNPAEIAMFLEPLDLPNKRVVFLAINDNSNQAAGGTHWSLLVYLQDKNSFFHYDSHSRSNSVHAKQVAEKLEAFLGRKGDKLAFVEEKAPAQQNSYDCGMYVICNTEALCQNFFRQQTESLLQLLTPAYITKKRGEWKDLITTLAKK

[6] = target: T5, Sentrin-specific protease 8; assay type: functional; remark: listed apart in the source
INS1 = assay: INS-1E survival protection against cytokine death – cell-based, luminescence, retest, dose response (AID 449756); assay type: functional; conditions: Rattus norvegicus;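 further: cell death triggered by IL-1 beta plus TNF-alpha plus IFN-gamma mixture; protective hits raise ATP signal compared with cytokine alone wells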
[7] = NIH3T3 cell viability loss – ATP luminescence, mouse fibroblasts, counter-screen, dose response (AID 2010); assay type: functional, cell-based;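 further: cells exposed to compound for about 90 hours before reading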
[8] = target: Heat shock protein HSP 90-alpha (Homo sapiens, UniProt P07900); assay type: functional, organism-based
[9] = Trypanosoma cruzi growth suppression in host cells – NIH3T3 host cells, beta-gal luminescence, confirmation (AID 2044); assay type: functional, cell-based;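 further: intracellular parasites grown in NIH/3T3 mouse fibroblasts as host cells; luminescent beta-galactosidase reporter signal from transgenic T. cruzi replicating inside host cells; inhibitors lower the luminescence signal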
[10] = Luminescence Cell-Based Dose Confirmation HTS to Identify Inhibitors of Platelet Dense Granule Release. [Related pubchem assays: 1663 (Primary HTS), 1678 (Summary of Project)]; assay type: functional
[11] = target: Luciferin 4-monooxygenase (Photinus pyralis, UniProt P08659); assay: inhibition of purified Photinus pyralis luciferase – biochemical, luminescence, dose response (AID 1891)
Luciferin 4-monooxygenase, sequence (P08659 whole entry): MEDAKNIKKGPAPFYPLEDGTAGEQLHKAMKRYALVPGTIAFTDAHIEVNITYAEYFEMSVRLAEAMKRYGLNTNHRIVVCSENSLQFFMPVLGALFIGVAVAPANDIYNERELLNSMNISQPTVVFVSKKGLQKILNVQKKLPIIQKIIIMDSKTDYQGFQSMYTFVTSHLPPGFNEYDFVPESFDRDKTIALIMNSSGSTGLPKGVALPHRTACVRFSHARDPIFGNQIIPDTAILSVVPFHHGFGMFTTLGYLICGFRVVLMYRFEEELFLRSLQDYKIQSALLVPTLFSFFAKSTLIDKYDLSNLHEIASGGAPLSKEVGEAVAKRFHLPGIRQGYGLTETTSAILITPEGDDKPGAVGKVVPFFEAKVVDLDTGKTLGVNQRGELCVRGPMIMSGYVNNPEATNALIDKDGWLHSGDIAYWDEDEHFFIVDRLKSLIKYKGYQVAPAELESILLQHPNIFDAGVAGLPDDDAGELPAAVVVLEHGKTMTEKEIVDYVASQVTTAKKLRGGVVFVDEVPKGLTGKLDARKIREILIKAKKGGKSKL

Galanin receptor type 3 = target: T6, Galanin receptor type 3 (Homo sapiens, UniProt O60755); assay: Fluorescence-based cell-based primary high throughput dose response assay to identify antagonists of the Galanin Receptor 3 (GalR3).; assay type: functional
T6 sequence (O60755 whole entry): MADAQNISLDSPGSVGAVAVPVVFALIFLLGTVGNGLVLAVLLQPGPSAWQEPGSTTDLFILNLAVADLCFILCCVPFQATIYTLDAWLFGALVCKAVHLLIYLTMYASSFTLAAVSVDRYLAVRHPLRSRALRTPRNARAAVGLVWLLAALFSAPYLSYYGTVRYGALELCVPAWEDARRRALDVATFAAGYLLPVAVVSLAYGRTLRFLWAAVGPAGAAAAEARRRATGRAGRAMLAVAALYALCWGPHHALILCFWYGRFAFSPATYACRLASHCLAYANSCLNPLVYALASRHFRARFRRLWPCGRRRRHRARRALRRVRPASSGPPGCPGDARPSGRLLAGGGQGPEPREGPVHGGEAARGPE

[12] = system: Streptococcus sp. 'group A'; assay: Streptococcus pyogenes SK(-)GAS viability under kanamycin – luminescence, BacTiterGlo, confirmation, counter-screen for streptokinase expression inhibitor project, dose response (AID 1900); assay type: functional, organism-based
cells = assay type: functional, cell-based; conditions: HEK-CNG
Streptococcus = assay: GAS UMAA2166 growth inhibition – luminescence, BacTiterGlo, counter-screen for streptokinase expression inhibitor project, dose response (AID 1915); assay type: functional, organism-based;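 further: potency for reduction of bacterial viability or growth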

With `COc1ccc(-c2nn(C)c3sc(C(=O)NCCN(C)C)cc23)cc1OC` the AC50 [1] was 2.35 µM (active) and the AC50 [2] was 6.36 µM (active).
In the case of `CCOC(=O)c1c(-c2ccccc2Cl)csc1NC(=O)CSc1nc(C)cc(=O)[nH]1`, the IC50 [3] was 11.6 µM (active) and the IC50 [4] was 28.7 µM (active).
In the case of `O=C(O)Cc1sc(NC2CCCCC2)nc1-c1ccc(Cl)cc1`, the IC50 (Cysteine protease ATG4B) was 21 µM (inactive) and the IC50 (Phospholipase A2) was 8.63 µM (active).
With `COc1cccc(-c2cnc3c(NC(C)=O)cc(-c4cccc(C(=O)NCCN(C)C)c4)cn23)c1` the AC50 [1] was 2.42 µM (active) and the AC50 [2] was 26.7 µM (active).
With `O=C(c1ncn(Cc2ccccc2)c1C(=O)N1CCc2ccccc2C1)N1CCc2ccccc2C1` the IC50 [5] was 16 µM (active) and the IC50 [6] was > 100 µM (inactive).
For `Cc1ccc(NC(=S)N/N=C/c2ccc([N+](=O)[O-])s2)cc1`, the AC50 (INS1) was 6.72 µM (active), the IC50 [5] was 21.5 µM (active) and the EC50 [7] was 7.86 µM (active). The AC50 [8] was 3.4 µM (active), the EC50 [9] was 1.34 µM (active) and the IC50 [6] was 18.4 µM (active).
With `COc1cccc(C2c3c(-c4cc(Cl)c(C)cc4O)n[nH]c3C(=O)N2Cc2cccnc2)c1` (centres undefined) the EC50 [10] was 41.2 µM (active), the IC50 [3] was 21.5 µM (active) and the IC50 [4] was 46 µM (active). The EC50 [11] was > 112 µM (not active).
In the case of `CC(C)(C)C(=O)NC(=S)NNC(=O)c1ccc(Cl)cc1Cl`, the IC50 (Galanin receptor type 3) was > 29.9 µM (inactive), the EC50 [12] was 1.88 µM (active) and the EC50 (cells) was > 29.9 µM (inactive). The EC50 (Streptococcus) was 5.5 µM (active).
